Source: paper PMC7179312 (Antimicrobial Agents and Chemotherapy, 2020)

Columns and labels:
[1] = test system: P. aeruginosa PAM1154 carrying pUCP24 vector (PAM4175); assay: MIC, CLSI broth microdilution; type: cell-based; settings: Pseudomonas aeruginosa, drug alone
Source text: The effects of KPC mutations on resistance to various antibiotics were investigated. For these studies, pUCP24 plasmids carrying wild-type and mutant blaKPC-2 genes as well as the pUCP24 vector were transformed into PAM1154, an efflux-deficient strain of Pseudomonas aeruginosa. In this host, the effect of β-lactamases on β-lactam MIC is amplified due to the slowed uptake of β-lactams across the low-permeability outer membrane without interference by efflux of either β-lactams or BLIs. Consequently, this host allows detection of β-lactamase activity (as an MIC increase) of low-catalytic-efficiency enzymes that rely heavily on the low permeability of the outer membrane. Using the strain that lacks efflux pumps ensures no interference from efflux in interpreting results. We next evaluated the steady-state protein expression levels in bacterial cells. […] The observed discrepancy with our results could be attributed to the difference in either the expression vector or host bacteria.
(§1) For microbiological studies, wild-type blaKPC-2 and its mutant variants were cloned into the shuttle vector pUCP24. Resulting plasmids were transformed in the efflux-deficient strain of P. aeruginosa PAM1154 using selection on 15 μg/ml of gentamicin. Using a strain of P. aeruginosa as opposed to E. coli as a host for various cloned genes was based on the following consideration. As well documented elsewhere ([41]), P. aeruginosa has a low-permeability outer membrane; consequently, the effect of β-lactamases on MIC is amplified in P. aeruginosa compared to that in E. coli due to the slowed uptake of β-lactams. Thus, this host is appropriate to detect β-lactamase activity (as an MIC increase) of low-catalytic-efficiency enzymes that rely heavily on low permeability of the outer membrane. […] MICs were determined using the Clinical and Laboratory Standards Institute (CLSI) broth microdilution method as described in CLSI document M07-A11 ([42]). Potentiation of antibiotic activity by various BLIs in bacterial strains carrying wild-type (WT) and mutant KPC-2 genes was performed using standard checkerboard methodology ([43]). BLI potency was defined as PV50 (PV, potentiation value). PV50 is the minimal concentration of a BLI that is required to reduce the antibiotic MIC to the middle of the MIC range (E50) where the highest MIC is the MIC for a KPC-producing strain with no inhibitor added and the lowest MIC is the MIC for the vector-only strain, corresponding to the complete inhibition of KPC. E50 is calculated as the square root of the product of the antibiotic MICs for the KPC-producing and the vector-only strains.

[2] = test system: P. aeruginosa PAM1154 carrying KPC-2::D179Y (PAM4639); assay: Checkerboard potentiation of antibiotic activity by BLIs; type: cell-based, Pseudomonas aeruginosa; settings: for increase of PV50 vs wild-type KPC-2: D179Y; for PV50: PAM4639 KPC-2::D179Y
Source text: (§2) BLI potency was defined as PV50 (PV, potentiation value) of antibiotic potentiation. PV50 is the concentration of a BLI that is required to reduce the antibiotic MIC to the middle of the MIC range where the highest MIC is the MIC for a KPC-producing strain with no inhibitor added and the lowest MIC is the MIC for the vector-alone strain, which corresponds to complete inhibition of KPC. As a given MIC is directly related to the β-lactamase activity, PV50 might be considered the concentration of a BLI that is required to achieve half-effect of inhibition of β-lactamase activity (in whole cells) to hydrolyze an antibiotic of interest. […] However, the accurate determination of PV50 requires the MIC range to be relatively wide.
as §1, with “Potentiation of antibiotic activity by various BLIs in bacterial strains carrying wild-type (WT) and mutant KPC-2 genes was performed using standard checkerboard methodology ([43]).” left out
(§3) […]
(§4) […]

[3] = test system: P. aeruginosa PAM1154 carrying KPC-2::L169P (PAM4751); assay: as above; type: cell-based, Pseudomonas aeruginosa; settings: for PV50: PAM4751 KPC-2::L169P
Source text: as §2
as §1, with “Potentiation of antibiotic activity by various BLIs in bacterial strains carrying wild-type (WT) and mutant KPC-2 genes was performed using standard checkerboard methodology ([43]).” left out
as §3, §4

[4] = test system: P. aeruginosa PAM1154 carrying wild-type KPC-2 (PAM4135); assay: as above; type: cell-based, Pseudomonas aeruginosa; settings: PAM4135 KPC-2
Source text: as §2
as §1, with “Potentiation of antibiotic activity by various BLIs in bacterial strains carrying wild-type (WT) and mutant KPC-2 genes was performed using standard checkerboard methodology ([43]).” left out
as §3, §4

KPC-2 = biological target: T1, KPC-2 (Klebsiella pneumoniae, UniProt Q9F663); assay: Inactivation kinetics (k2/K, k−2, Kd), nitrocefin reporter substrate method; type: biochemical; settings: NCF hydrolysis, 37°C
T1 construct: 6xHis (C); made in house; host or cells: E. coli BL21(DE3) pLys, pET28a
Procedure: Inactivation kinetic parameters were determined by reporter substrate method for the slow tight binding inhibitor kinetic scheme ([45]). Protein was quickly mixed with 100 μM nitrocefin and various concentrations of BLI in reaction buffer, and absorbance at 490 nm was measured immediately every 2 s for 600 s on a SpectraMax plate reader (Molecular Devices, San Jose, CA) at 37°C. Resulting progression curves of OD490 versus time at various BLI concentrations were imported into Prism software (GraphPad, San Diego, CA), and pseudo-first-order rate constants (kobs) were calculated using the following equation: P=Vs×(1-e^-kobs^×^t)/kobs where Vs is enzyme nitrocefin cleavage rate in the absence of BLI. kobs values calculated at various vaborbactam concentrations were fitted in the following equation: kobs=k−2+k2/K×[I]/{1+[NCF]/Km(NCF)} where k2/K is the inactivation constant, [I] is inhibitor concentration, [NCF] is nitrocefin concentration, and Km(NCF) is the Michaelis constant of nitrocefin for KPC-2.

KPC-2 D179Y = biological target: T2, KPC-2 D179Y (Klebsiella pneumoniae, UniProt Q9F663, D178Y); settings: D179Y substitution in KPC-2; cited from earlier work
T2 construct: 6xHis (C); made in house; host or cells: E. coli BL21(DE3) pLys, pET28a
T2 sequence (Q9F663 25-293 D178Y): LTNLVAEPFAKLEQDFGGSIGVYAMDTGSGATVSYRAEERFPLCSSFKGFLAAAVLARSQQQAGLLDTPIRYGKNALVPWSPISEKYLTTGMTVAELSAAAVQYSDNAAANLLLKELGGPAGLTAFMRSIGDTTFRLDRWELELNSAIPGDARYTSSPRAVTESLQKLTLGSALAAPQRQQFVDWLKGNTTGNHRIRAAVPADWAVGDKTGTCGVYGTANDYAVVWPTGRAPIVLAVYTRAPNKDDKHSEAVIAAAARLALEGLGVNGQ

T1 sequence (Q9F663 25-293 limits assumed): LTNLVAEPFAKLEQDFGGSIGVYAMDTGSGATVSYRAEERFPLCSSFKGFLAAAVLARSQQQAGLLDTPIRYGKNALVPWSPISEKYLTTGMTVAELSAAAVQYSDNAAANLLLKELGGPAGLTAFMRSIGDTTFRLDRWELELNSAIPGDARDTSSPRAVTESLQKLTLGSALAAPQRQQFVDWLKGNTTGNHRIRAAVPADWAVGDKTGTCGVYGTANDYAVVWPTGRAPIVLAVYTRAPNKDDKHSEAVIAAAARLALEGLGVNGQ

In the case of `NC(=O)[C@@H]1CC[C@@H]2CN1C(=O)N2OS(=O)(=O)O` [Avibactam, avibactam], the MIC [1] is reported as 128 µg/mL, the “increase of PV50 vs wild-type KPC-2” value ([2]; cefepime) is reported as 16 fold and the “increase of PV50 vs wild-type KPC-2” value ([2]; ceftazidime) is reported as 32 fold. The “increase of PV50 vs wild-type KPC-2” value ([2]; piperacillin) was 4 fold, the PV50 ([2]; potentiation of cefepime) was 4 µg/mL and the PV50 ([2]; potentiation of ceftazidime) was 4 µg/mL. The PV50 ([2]; potentiation of piperacillin) was 1 µg/mL, the “increase of PV50 vs wild-type KPC-2” value ([3]; L169P, cefepime) was 4 fold and the PV50 ([3]; potentiation of cefepime) was 1 µg/mL. It also gave a PV50 ([3]; potentiation of ceftazidime) of 2 µg/mL, a PV50 ([3]; potentiation of piperacillin) of 2 µg/mL and a PV50 ([4]; potentiation of cefepime) of 0.25 µg/mL. The PV50 ([4]; potentiation of ceftazidime) was 0.125 µg/mL, the “k−2” value (KPC-2) was 3.3 ± 0.1 × 10^−4 s^−1 and the “decrease in the inactivation constant k2/K” value (KPC-2 D179Y) was 70,000 fold.
